Structures are written as SMILES.

For orientation: Cmax means the maximum level reached in the sampled fluid or tissue. The AUC is the area under the concentration-time curve, a measure of exposure. A higher AUC goes with high exposure. As a reminder, the amount remaining is the share of the starting amount still present when the sample was taken. A low value points to a greater loss.

A short description of series [1]: in vivo. Particulars: rat, po, 10 mg/kg.
Series [2] in a line: in vivo. Particulars: rat, po, 10 mg/kg. The source holds these as a separate data set.
Series [3] can be described thus: in vitro. Particulars: rat, liver microsomes. For orientation: Microsomes from liver hold many membrane-bound enzymes, among them those of drug oxidation.
The nature of series [4]: in vitro. Particulars: human, liver microsomes.

Molecule `Cc1cc(Nc2ncc(Cl)c(Nc3ccccc3S(=O)(=O)C(C)C)n2)c(OC(C)C)cc1C1CCNCC1` [CERITINIB] yielded a Cmax in the series “in vivo [1]” of 90 ng/mL. Besides, in “in vivo [2]”, the AUC is 1400 ng·h/mL. Further, the amount remaining at 0.5 h, 1 µM in “in vitro [3]” stood at 98%; in the series “in vitro [4]” it was 88%.

For the origin of these results see ChEMBL document CHEMBL4715694, “Discovery of novel tetrahydroisoquinoline-containing pyrimidines as ALK inhibitors” (Bioorg Med Chem, 2016).
